A word on the IC50: it is the concentration that gives 50% inhibition. In general, inhibition refers to the share of the control response that was lost under treatment.

The text below walks through data of publication PMC5358767 (PLoS ONE, 2017).

Where a name gives a salt, the structure may show the parent alone. Read-outs that look alike come from different tables or passages of the source. abz = not defined here; dnp = not defined here Some results are limits rather than exact numbers.

One assay concerns S. suis. The assay is described as follows: microbe, parasite or virus in culture. Details: species or system Streptococcus suis; microtiter broth dilution MIC of natural products against S. suis. The protocol:
To find potent Ss-SrtA inhibitors, the 11 natural products listed in S1 Table were selected for experimental validation using purified recombinant Ss-SrtA. […] Using the microtiter broth dilution method, we measured the MIC values of all these natural products to be >500 μM (S1 Table). […] S. suis strains were cultured in Todd–Hewitt broth (THB; Oxoid Ltd.) without shaking or Todd–Hewitt broth agar plates at 37°C with 5% CO2. E. coli and S. aureus strains were grown in Luria-Bertani (LB) medium at 37°C with shaking at 200 rpm or plated on LB agar. If required, cultures were supplemented with antibiotics at the following concentrations: erythromycin, 3 μg ml^−1 for S. aureus; ampicillin, 100 μg ml^−1 for E. coli.

Another assay concerns the target T1, Sortase A (Ss-SrtA) (Streptococcus suis, UniProt Q8VUP7).
T1 construct: residues N24-Q235, C-terminal His-tag
Put plainly: fluorescence-quenched peptide (abz-LPATG-dnp) hydrolysis assay with recombinant enzyme. It counts as biochemical.

The target of assay [1] is T2, Sortase A (Sa-SrtA) (Staphylococcus aureus, UniProt Q2FV99).
T2 construct: endogenous, S. aureus Newman D2C cells
Put plainly: SrtA-dependent fluorescent peptide incorporation in live cells, flow cytometry; […] inhibition at […]. It counts as cell-based.

The target in assay [2] is T2, Sortase A (Sa-SrtA). The assay is described as above. It counts as cell-based. The source holds these as a separate data set.
Assay [3] concerns the target T2, Sortase A (Sa-SrtA). The assay is described as above. It is filed as cell-based. This is another data set of the same source.
Assay [4] concerns the target Streptococcus suis sortase A (recombinant, residues N24-Q235 with C-terminal His-tag) (Streptococcus suis).
Where [5] appears, read: Streptococcus suis, read-out: MIC.

T2 sequence (Q2FV99 whole entry): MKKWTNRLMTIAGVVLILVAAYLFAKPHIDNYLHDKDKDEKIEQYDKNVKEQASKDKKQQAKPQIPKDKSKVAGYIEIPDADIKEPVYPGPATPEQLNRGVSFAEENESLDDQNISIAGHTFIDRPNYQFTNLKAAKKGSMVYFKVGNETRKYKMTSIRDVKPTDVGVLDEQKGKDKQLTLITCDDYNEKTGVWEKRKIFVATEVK
T1 sequence (Q8VUP7 entry or part of it): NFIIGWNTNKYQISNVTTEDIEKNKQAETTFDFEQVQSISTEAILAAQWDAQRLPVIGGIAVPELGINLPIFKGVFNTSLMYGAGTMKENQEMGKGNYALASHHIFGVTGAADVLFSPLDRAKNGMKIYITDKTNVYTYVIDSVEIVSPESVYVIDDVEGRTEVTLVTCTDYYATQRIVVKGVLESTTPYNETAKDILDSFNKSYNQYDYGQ

Take `O=c1cc(-c2ccccc2)oc2cc(O)c(O)c(O)c12` [Baicalein]: in the assay on S. suis (setting [5]), the MIC is above 500 µM.

As to `C[C@@H]1O[C@@H](OC[C@H]2O[C@@H](Oc3c(-c4ccc(O)c(O)c4)oc4cc(O)cc(O)c4c3=O)[C@H](O)[C@@H](O)[C@@H]2O)[C@H](O)[C@H](O)[C@H]1O` [Rutin], in the assay on S. suis (setting [5]), the MIC was above 500 µM.

Take `COc1c(O)cc(O)c2c(=O)cc(-c3ccccc3)oc12` [Wogonin]: the MIC with S. suis (setting [5]) was above 500 µM.

Turning to `COc1cc(/C=C/C(=O)CC(=O)/C=C/c2ccc(O)c(OC)c2)ccc1O` [curcumin], on Sortase A (Ss-SrtA), the IC50 was below 100 µM. Further, the MIC in the assay with S. suis (setting [5]) is above 500 µM.

`O=c1c(O)c(-c2ccc(O)c(O)c2)oc2cc(O)cc(O)c12` [quercetin]: the IC50 on Sortase A (Ss-SrtA) was below 100 µM. For the same molecule, the MIC in the assay with S. suis (setting [5]) was above 500 µM.

`O=c1c(O[C@@H]2O[C@H](CO)[C@@H](O)[C@H](O)[C@H]2O)c(-c2ccc(O)c(O)c2)oc2cc(O)cc(O)c12` [isoquercitrin] showed an inhibition at 200 µM at Sortase A (Sa-SrtA) [1] of 28%. In addition, the MIC in the assay with S. suis (setting [5]) is above 500 µM.

Regarding `CCCCC[C@H](O)CC(=O)CCc1ccc(O)c(OC)c1` [6-Gingerol], in the assay on S. suis (setting [5]), the MIC was above 500 µM.

Regarding `COc1ccc2cc3[n+](cc2c1OC)CCc1cc2c(cc1-3)OCO2` [berberine hydrochloride], the IC50 at Sortase A (Ss-SrtA) was below 100 µM. Also, the MIC with S. suis (setting [5]) is above 500 µM.

Turning to `O=C(O)[C@H]1O[C@@H](Oc2cc3oc(-c4ccccc4)cc(=O)c3c(O)c2O)[C@H](O)[C@@H](O)[C@@H]1O` [baicalin], the IC50 at Sortase A (Ss-SrtA) was 85.4 ± 1.5 µM. The inhibition at 200 µM against Sortase A (Sa-SrtA) [2] was 45%. Besides, the MIC in the assay with S. suis (setting [5]) was above 500 µM.

On to `O=c1cc(-c2ccc(O)cc2)oc2c([C@@H]3O[C@H](CO)[C@@H](O)[C@H](O)[C@H]3O)c(O)cc(O)c12` [Vitexin], for which the MIC in the assay on S. suis (inhibitor) is above 500 µM.

In the case of `C[C@@H]1O[C@@H](O[C@@H]2[C@@H](O)[C@H](OCCc3ccc(O)c(O)c3)O[C@H](CO)[C@H]2OC(=O)/C=C/c2ccc(O)c(O)c2)[C@H](O)[C@H](O)[C@H]1O` [acteoside], at Sortase A (Ss-SrtA), the IC50 is 36.3 ± 1.3 µM. The inhibition at 200 µM against Sortase A (Sa-SrtA) [3] stood at 86%. In addition, the MIC in the assay on S. suis (setting [5]) was above 500 µM.

With abz-LPATG-dnp (reading uncertain; also: printed as abz-LPATG-dnp) [abz-LPATG-dnp (internally quenched fluorescent peptide substrate)], in assay [4], the Km for the hydrolysis of abz-LPATG-dnp by purified Ss-SrtA (fluorescence increase of the quenched peptide; substrate 0.375-64 μM; 50 mM Tris·HCl, 150 mM NaCl, pH 7.5, 37°C) was 6.7 μM.
